Earlier results, collected in patent US6635803B1, “Method to improve drought tolerance in plants” (Regents of the University of California, priority 1999, dated 2003).

Experiments:
K+in channel = conditions: 10 mM
[1] = test system: K+in channels in guard cells; conditions: cytosolic second messengers

SMILES	final stomatal apertures (stomata)	block of K+in channel currents (K+in channel) [%]	effect on K+in channels [1]
[Ba+2] [Ba^2+]	does not affect	90	–
[Ca+2] [Ca^2+]	–	–	inhibit
Nc1nc2c(ncn2[C@@H]2O[C@H](COP(=O)(O)OP(=O)(O)OP(O)(O)=S)[C@@H](O)[C@H]2O)c(=O)[nH]1 [GTPγS]	–	–	inhibit
O=P(O)(O)O[C@@H]1[C@H](O)[C@H](O)[C@@H](OP(=O)(O)O)[C@H](OP(=O)(O)O)[C@H]1O [inositol-1,4,5-triphosphate]	–	–	inhibit
